EC50 data for 50 molecules are collected here from patent US10793530B2, “Benzylaminopyrazinylcyclopropanecarboxylic acids, pharmaceutical compositions and uses thereof” (Boehringer Ingelheim International GmbH, priority 2017, dated 2020).

Chain of human GPR40 receptor (O14842 whole entry): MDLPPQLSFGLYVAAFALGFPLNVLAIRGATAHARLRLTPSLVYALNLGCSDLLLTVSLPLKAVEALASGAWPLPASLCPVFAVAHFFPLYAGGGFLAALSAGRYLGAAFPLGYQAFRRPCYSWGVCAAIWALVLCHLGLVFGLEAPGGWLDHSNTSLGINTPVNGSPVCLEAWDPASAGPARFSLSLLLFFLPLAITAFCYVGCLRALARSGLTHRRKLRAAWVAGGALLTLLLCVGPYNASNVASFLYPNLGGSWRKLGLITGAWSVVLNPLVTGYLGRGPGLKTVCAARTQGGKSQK

This assay addresses human GPR40 receptor (Homo sapiens, UniProt O14842). As to the kind of experiment: IP1 accumulation measurements using the IPOne assay system. The assay is classed as cell-based. The note with it: 1321N1 cells stably expressing human GPR40 receptor; stimulated 1 h at 37° C. The procedure: IP1 is assayed according to the manufacturers description (Cisbio Bioassays, France). In brief, the assay is started by substitution of the culture medium by stimulation buffer (Hepes 10 mM, CaCl2 1 mM, MgCl2 0.5 mM, KCl 4.2 mM, NaCl 146 mM, glucose 5.5 mM and LiCl 50 mM, pH 7.4). Cells are stimulated for 1 h at 37° C., 5% CO2 by addition of the compounds that are diluted in stimulation buffer containing LiCl. Assays are stopped by adding HTRF-conjugates (IP1-d2 and Anti-IP1 cryptate Tb) and lysis buffer, provided by the manufacturer. After an incubation time of 1 h at room temperature plates are measured using an EnVision™, Perkin Elmer. The obtained fluorescence ratios at 665/615 […] are then used to calculate the pEC50 values using Assay Explorer 3.3 Software (Accelrys, Inc.) by interpolation using an IP1 reference curve and subsequent sigmoidal curve fitting allowing for a variable hill slope.
In the case of `Cc1cc(OCC2CCCO2)cc(C)c1-c1ccc(F)c(CNc2cnc(C3CC3C(=O)O)cn2)c1` (mixture of isomers) [Example 44], the EC50 (commonly the concentration at which the effect is half-maximal) came out at 1.92 µM.
Molecule `Cc1cc(OCCCS(C)(=O)=O)cc(C)c1-c1cccc(CNc2cnc([C@H]3C[C@@H]3C(=O)O)cn2)c1` [Example 1, (1S,2S)-2-(5-{[4′-(3-Methanesulfonyl-propoxy)-2′,6′-dimethyl-biphenyl-3-ylmethyl]-amino}-pyrazin-2-yl)-cyclopropanecarboxylic acid] registered an EC50 of 0.036 µM.
For the molecule `CC(C)(O)CCOc1ccc(-c2cc(CNc3cnc([C@H]4C[C@@H]4C(=O)O)cn3)ccc2C(F)(F)F)cc1` [Example 2, (1S,2S)-2-(5-{[4′-(3-Hydroxy-3-methyl-butoxy)-6-trifluoromethyl-biphenyl-3-ylmethyl]-amino}-pyrazin-2-yl)-cyclopropanecarboxylic acid], a half-maximal response (EC50) required 0.006 µM.
In the case of `O=C(O)[C@H]1C[C@@H]1c1cnc(NCc2ccc(C(F)(F)F)c(-c3ccc(OCC4CC4)cc3)c2)cn1` [Example 3, (1S,2S)-2-{5-[(4′-Cyclopropylmethoxy-6-trifluoromethyl-biphenyl-3-ylmethyl)-amino]-pyrazin-2-yl}-cyclopropanecarboxylic acid] it was 0.028 µM.
As for `O=C(O)[C@H]1C[C@@H]1c1cnc(NCc2ccc(C(F)(F)F)c(-c3ccc(OC(F)(F)F)cc3)c2)cn1` [Example 4, (1S,2S)-2-{5-[(4′-Trifluoromethoxy-6-trifluoromethyl-biphenyl-3-ylmethyl)-amino]-pyrazin-2-yl}-cyclopropanecarboxylic acid], the EC50 is 0.009 µM.
In turn, `Cc1cc(OCCC(C)(C)O)cc(C)c1-c1cc(CNc2cnc([C@H]3C[C@@H]3C(=O)O)cn2)ccc1C(F)(F)F` [Example 5, (1S,2S)-2-(5-{[4′-(3-Hydroxy-3-methyl-butoxy)-2′,6′-dimethyl-6-trifluoromethyl-biphenyl-3-ylmethyl]-amino}-pyrazin-2-yl)-cyclopropanecarboxylic acid] registered an EC50 of 0.31 µM.
The value for `COc1ccc(-c2ccc(-c3cc(CNc4cnc([C@H]5C[C@@H]5C(=O)O)cn4)c(F)cc3F)cc2)nc1` [Example 6, (1S,2S)-2-(5-{[4,6-Difluoro-4′-(5-methoxy-pyridin-2-yl)-biphenyl-3-ylmethyl]-amino}-pyrazin-2-yl)-cyclopropanecarboxylic acid] was 0.019 µM; that for `COc1ccc(-c2ccc(-c3cc(CNc4cnc([C@H]5C[C@@H]5C(=O)O)cn4)c(F)cc3F)cc2)nn1` [Example 7, (1S,2S)-2-(5-{[4,6-Difluoro-4′-(6-methoxy-pyridazin-3-yl)-biphenyl-3-ylmethyl]-amino}-pyrazin-2-yl)-cyclopropanecarboxylic acid] was 0.038 µM; that for `Cc1cc(N)ccc1-c1cc(CNc2cnc([C@H]3C[C@@H]3C(=O)O)cn2)c(F)cc1F` [Example 8, (1S,2S)-2-{5-[(4′-Amino-4,6-difluoro-2′-methyl-biphenyl-3-ylmethyl)-amino]-pyrazin-2-yl}-cyclopropanecarboxylic acid] was 0.126 µM.
The molecule `O=C(O)[C@H]1C[C@@H]1c1cnc(NCc2cc(-c3ccc(O)c(Cl)c3)c(F)cc2F)cn1` [Example 9, (1S,2S)-2-{5-[(3′-Choro-4,6-difluoro-4′-hydroxy-biphenyl-3-ylmethyl)-amino]-pyrazin-2-yl}-cyclopropanecarboxylic acid] had an EC50 of 0.596 µM.
The value for `COc1c(F)cc(-c2cc(CNc3cnc([C@H]4C[C@@H]4C(=O)O)cn3)c(F)cc2F)cc1F` [Example 10, (1S,2S)-2-{5-[(4,6,3′,5′-Tetrafluoro-4′-methoxy-biphenyl-3-ylmethyl)-amino]-pyrazin-2-yl}-cyclopropanecarboxylic acid] was 0.053 µM.
The molecule `Cc1cc(OCC(C)(C)O)cc(C)c1-c1ccc(F)c(CNc2cnc(C3CC3C(=O)O)cn2)c1` (centres unmarked) [Example 11] came in with an EC50 of 0.018 µM.
Consider `Cc1cc(OCC2(O)CCS(=O)(=O)CC2)cc(C)c1-c1ccc(F)c(CNc2cnc(C3CC3C(=O)O)cn2)c1` (centres unmarked) [Example 12], for which the midpoint of the response, the EC50, lay at 0.1 µM.
The value for `CNC(=O)c1cc(C)c(-c2ccc(F)c(CNc3cnc(C4CC4C(=O)O)cn3)c2)c(C)c1` (centres unmarked) [Example 13] was 0.224 µM.
In the case of `Cc1cc(C(=O)N(C)C)cc(C)c1-c1ccc(F)c(CNc2cnc(C3CC3C(=O)O)cn2)c1` (centres unmarked) [Example 14] it was 0.034 µM; in that of `Cc1cc(C(=O)O)cc(C)c1-c1ccc(F)c(CNc2cnc(C3CC3C(=O)O)cn2)c1` (centres unmarked) [Example 15], 0.024 µM; in that of `Cc1cc(-c2ccc(=O)n(C)c2)cc(C)c1-c1ccc(F)c(CNc2cnc(C3CC3C(=O)O)cn2)c1` (centres unmarked) [Example 16], 0.021 µM.
In the case of `CC(C)c1ccccc1-c1ccc(F)c(CNc2cnc(C3CC3C(=O)O)cn2)c1` (centres unmarked) [Example 17] it was 0.154 µM; in that of `Cc1cc(OCC2CCOCC2)cc(C)c1-c1ccc(F)c(CNc2cnc(C3CC3C(=O)O)cn2)c1` (centres unmarked) [Example 18], 0.014 µM.
For the molecule `Cc1cc(OC2CCOCC2)cc(C)c1-c1ccc(F)c(CNc2cnc(C3CC3C(=O)O)cn2)c1` (centres unmarked) [Example 20], the EC50 was found to be 0.022 µM.
In turn, `Cc1cc(-c2cc(=O)n(C)cn2)cc(C)c1-c1ccc(F)c(CNc2cnc(C3CC3C(=O)O)cn2)c1` (centres unmarked) [Example 21] registered an EC50 of 0.021 µM.
`Cc1cc(-c2ccn(C)c(=O)c2)cc(C)c1-c1ccc(F)c(CNc2cnc(C3CC3C(=O)O)cn2)c1` (centres unmarked) [Example 22]: the EC50 came to 0.014 µM.
The value for `Cc1cc(OCC(C)(C)C#N)cc(C)c1-c1ccc(F)c(CNc2cnc(C3CC3C(=O)O)cn2)c1` (centres unmarked) [Example 24] was 0.034 µM.
The value for `Cc1cc(-c2nnn(CC(C)(C)O)n2)cc(C)c1-c1ccc(F)c(CNc2cnc(C3CC3C(=O)O)cn2)c1` (centres unmarked) [Example 28] was 0.007 µM.
With `Cc1cc(OCC2(O)CCOCC2)cc(C)c1-c1ccc(F)c(CNc2cnc(C3CC3C(=O)O)cn2)c1` (centres unmarked) [Example 29], the EC50 was determined as 0.068 µM.
The value for `Cc1cc(OCC2(O)CCSCC2)cc(C)c1-c1ccc(F)c(CNc2cnc(C3CC3C(=O)O)cn2)c1` (centres unmarked) [Example 30] was 0.028 µM; that for `COc1cc(-c2cc(C)c(-c3ccc(F)c(CNc4cnc(C5CC5C(=O)O)cn4)c3)c(C)c2)ccn1` (centres unmarked) [Example 31] was 0.005 µM.
Regarding `Cc1nc(-c2ccc(-c3ccc(F)c(CNc4cnc(C5CC5C(=O)O)cn4)c3)cc2)cs1` (centres unmarked) [Example 32], the EC50 is 0.02 µM.
In the case of `Cc1cc(OCC2(C)COC2)cc(C)c1-c1ccc(F)c(CNc2cnc(C3CC3C(=O)O)cn2)c1` (centres unmarked) [Example 33] it was 0.147 µM; in that of `Cc1cc(OCC(=O)O)cc(C)c1-c1ccc(F)c(CNc2cnc(C3CC3C(=O)O)cn2)c1` (centres unmarked) [Example 34], 0.104 µM.
`CCc1cccc(CC)c1-c1ccc(F)c(CNc2cnc(C3CC3C(=O)O)cn2)c1` (centres unmarked) [Example 36]: the EC50 was determined as 0.004 µM.
The value for `COc1cc(OC)c(F)c(-c2ccc(F)c(CNc3cnc(C4CC4C(=O)O)cn3)c2)c1F` (centres unmarked) [Example 37] was 0.047 µM; that for `Cc1cc(CO)cc(C)c1-c1ccc(F)c(CNc2cnc(C3CC3C(=O)O)cn2)c1` (centres unmarked) [Example 39] was 4.28 µM; that for `O=C(O)C1CC1c1cnc(NCc2cc(-c3ccccc3C(F)(F)F)ccc2F)cn1` (centres unmarked) [Example 40] was 0.051 µM.
`Cc1ccc(Cl)c(-c2ccc(F)c(CNc3cnc(C4CC4C(=O)O)cn3)c2)c1Cl` (centres unmarked) [Example 41]: the midpoint of the response, the EC50, lay at 0.723 µM.
The value for `Cc1cc(OC2CCOC2)cc(C)c1-c1ccc(F)c(CNc2cnc(C3CC3C(=O)O)cn2)c1` (centres unmarked) [Example 42] was 0.028 µM; that for `O=C(O)C1CC1c1cnc(NCc2cc(-c3c(F)cc(F)cc3F)ccc2F)cn1` (centres unmarked) [Example 45] was 0.034 µM.
The molecule `O=C(O)C1CC1c1cnc(NCc2cc(-c3c(Cl)cccc3Cl)ccc2F)cn1` (centres unmarked) [Example 46] gave an EC50 of 0.006 µM.
On to `O=C(O)C1CC1c1cnc(NCc2cc(-c3c(F)cccc3F)ccc2F)cn1` (centres unmarked) [Example 47], for which the response was half-maximal at 0.579 µM (EC50).
In the case of `COc1cc(C)c(-c2ccc(F)c(CNc3cnc(C4CC4C(=O)O)cn3)c2)c(C)c1` (centres unmarked) [Example 48] it was 0.024 µM; in that of `Cc1cc(C(N)=O)cc(C)c1-c1ccc(F)c(CNc2cnc(C3CC3C(=O)O)cn2)c1` (centres unmarked) [Example 49], 0.01 µM; in that of `COc1cc(OC)c(Cl)c(-c2ccc(F)c(CNc3cnc(C4CC4C(=O)O)cn3)c2)c1Cl` (centres unmarked) [Example 50], 1.39 µM.
The molecule `N#CC1(c2ccccc2-c2ccc(F)c(CNc3cnc(C4CC4C(=O)O)cn3)c2)CC1` (centres unmarked) [Example 51] gave an EC50 of 0.051 µM.
The value for `COc1cc(OC)c(-c2ccc(F)c(CNc3cnc(C4CC4C(=O)O)cn3)c2)c(OC)c1` (centres unmarked) [Example 53] was 0.887 µM; that for `O=C(O)C1CC1c1cnc(NCc2cc(-c3c(F)cc(OC4CC4)cc3F)ccc2F)cn1` (centres unmarked) [Example 54] was 0.011 µM.
In the case of `Nc1cc(F)c(-c2ccc(F)c(CNc3cnc(C4CC4C(=O)O)cn3)c2)c(F)c1` (centres unmarked) [Example 55] it was 0.189 µM; in that of `O=C(O)C1CC1c1cnc(NCc2cc(-c3ccc(-c4cnco4)cc3)ccc2F)cn1` (centres unmarked) [Example 56], 0.177 µM.
Turning to `N#Cc1cccc(C#N)c1-c1ccc(F)c(CNc2cnc(C3CC3C(=O)O)cn2)c1` (centres unmarked) [Example 57], the EC50 is greater than 10 µM.
In the case of `COc1cc(F)c(-c2ccc(F)c(CNc3cnc(C4CC4C(=O)O)cn3)c2)c(F)c1` (centres unmarked) [Example 58] it was 0.896 µM; in that of `Cc1cccc(C)c1-c1ccc(F)c(CNc2cnc(C3CC3C(=O)O)cn2)c1` (centres unmarked) [Example 59], 0.024 µM.
